Consider 3 compounds from US7312205B2, “Methods and compositions for inhibiting tumor growth” (Novelix Pharmaceuticals, Inc., priority 2003, dated 2007).

Test [1] has as its system liposarcoma line (ATCC HTB-92). Kind of test: Growth inhibition in liposarcoma line ATCC HTB-92 (cell survival vs untreated controls). The class given is cell-based. The source says: (§1) Examples 1 and 2 show direct comparisons between comparative compound A (betulic acid) and a novel derivative (compound B) in paired growth assays (cell count decrease after 3 days after a single application of the indicated concentrations of the respective compounds on day 1).
Comparison of the efficacy of comparative compound (A) (betulic acid) with that of compound (B) (protected betulic acid trisester) in a liposarcoma line (ATCC HTB-92). The X-axis indicates the concentration in μg/ml of compounds A and B, respectively, the Y-axis gives the cell survival rate in percent of the untreated controls. […]

In test [2] the test system is melanoma cell line 518A2. Kind of test: Growth inhibition in melanoma cell line 518A2 (cell survival vs untreated controls). The class given is cell-based.
Description: as §1
Comparison of compound (A) (betulic acid) with compound (B) (protected betulic acid trisester)—Growth inhibition in melanoma cell line 518A2 (obtained from Peter Schrier, Leiden, The Netherlands) […]. The X-axis indicates the concentration in μg/ml of compounds A and B, respectively, the Y-axis gives the cell survival rate in percent of the untreated controls.
Comparison of the effects of different betulic acid derivatives according to the invention and of the comparative compound (betulic acid), respectively, on various melanoma-sarcoma lines. The data each refer to cell survival rates in percent (mean values) as against untreated cell cultures.
Survival in percent as with all other data after 3 days of cell culture after a single application on day 1

The mark [3] stands for this setting: liposarcoma ATCC HTB-92, 0.3 μg/ml.
[4] abbreviates: liposarcoma ATCC HTB-92, 0.6 μg/ml.
The mark [5] stands for this setting: liposarcoma ATCC HTB-92, 1 μg/ml.
[6] abbreviates: liposarcoma ATCC HTB-92, 1.25 μg/ml.
Setting [7] is: liposarcoma ATCC HTB-92, 2.5 μg/ml.
[8] abbreviates: liposarcoma ATCC HTB-92, 5 μg/ml.
Setting [9] is: liposarcoma ATCC HTB-92, 10 μg/ml.

For `C=C(C)[C@@H]1CC[C@]2(C(=O)OCC(N)(CO)CO)CC[C@]3(C)[C@H](CC[C@@H]4[C@@]5(C)CC[C@H](OC(C)=O)C(C)(C)[C@@H]5CC[C@]43C)[C@@H]12` [Compound B, Acetyl betulic acid-2-amino-3-hydroxy-2-hydroxymethyl propyl ester], the survival in % in test [1] (setting [3]) is listed as 89.5%; in test [1] (setting [4]), 70.7%; in test [1] (setting [5]), 12.0%; in test [1] (setting [6]) it was 2.9%; in test [1] (setting [7]), 3.0%; in test [1] (setting [8]), 0.0%. For the same compound, the survival in % in test [1] (setting [9]) is 0.0%; in test [2] (melanoma 518A2, 0.3 μg/ml), 83.0%; in test [2] (melanoma 518A2, 0.6 μg/ml) it was 56.3%; in test [2] (melanoma 518A2, 1 μg/ml), 11.3%; in test [2] (melanoma 518A2, 1.25 μg/ml), 10.3%; in test [2] (melanoma 518A2, 2.5 μg/ml), 2.8%. In addition, the survival in % in test [2] (melanoma 518A2, 5 μg/ml) worked out at 0.0%; in test [2] (melanoma 518A2, 10 μg/ml) it was 0.0%. For the same compound, the “Survival in % melanoma” value in test [2] (Test #1: stock 50 mg/ml in EtOH, 1.0 μg/ml, 3 days) stood at 50%; in test [2] (Test #1: stock 50 mg/ml in EtOH, 2.0 μg/ml, 3 days) it was 0.5%; in test [2] (Test #1: stock 50 mg/ml in EtOH, 3.0 μg/ml, 3 days) it was 0.0%; in test [2] (Test #1: stock 50 mg/ml in EtOH, 4.0 μg/ml, 3 days), 0.0%; in test [2] (Test #2: inclusion compound, 5.9 mg/ml in 266 mg/ml HBC in H2O, 1.0 μg/ml, 3 days), 65%; in test [2] (Test #2: inclusion compound, 5.9 mg/ml in 266 mg/ml HBC in H2O, 2.0 μg/ml, 3 days), 25%. The “Survival in % melanoma” value in test [2] (Test #2: inclusion compound, 5.9 mg/ml in 266 mg/ml HBC in H2O, 3.0 μg/ml, 3 days) was determined as 0.0%; in test [2] (Test #2: inclusion compound, 5.9 mg/ml in 266 mg/ml HBC in H2O, 4.0 μg/ml, 3 days), 0.0%; in test [2] (Test #3: inclusion compound, 20 mg/ml in 266 mg/ml HBC in 50% EtOH/50% H2O, 1.0 μg/ml, 3 days), 77%; in test [2] (Test #3: inclusion compound, 20 mg/ml in 266 mg/ml HBC in 50% EtOH/50% H2O, 2.0 μg/ml, 3 days), 24%; in test [2] (Test #3: inclusion compound, 20 mg/ml in 266 mg/ml HBC in 50% EtOH/50% H2O, 3.0 μg/ml, 3 days) it was 0.0%; in test [2] (Test #3: inclusion compound, 20 mg/ml in 266 mg/ml HBC in 50% EtOH/50% H2O, 4.0 μg/ml, 3 days), 0.0%. In addition, the “Survival in % melanoma” value came to 59% in test [2] (Test #4: inclusion compound, 25 mg/ml in 200 mg/ml HGC in 50% EtOH/50% H2O, 1.0 μg/ml, 3 days); 4% in test [2] (Test #4: inclusion compound, 25 mg/ml in 200 mg/ml HGC in 50% EtOH/50% H2O, 2.0 μg/ml, 3 days); 0.0% in test [2] (Test #4: inclusion compound, 25 mg/ml in 200 mg/ml HGC in 50% EtOH/50% H2O, 3.0 μg/ml, 3 days). Further, the “activity relative to comparative compound (A)” value in test [2] (melanoma cell line 518A2, from ED50) was “up to 7 times”.
In the case of `C=C(C)[C@@H]1CC[C@]2(C(=O)O)CC[C@]3(C)[C@H](CC[C@@H]4[C@@]5(C)CC[C@H](O)C(C)(C)[C@@H]5CC[C@]43C)[C@@H]12` [A, betulic acid, reference compound], the survival in % in test [1] (setting [3]) stood at 98.0%; in test [1] (setting [4]), 92.8%; in test [1] (setting [5]), 92.3%; in test [1] (setting [6]) it was 79.5%; in test [1] (setting [7]), 49.3%; in test [1] (setting [8]), 20.8%. The survival in % in test [1] (setting [9]) was found to be 15.7%.
Regarding `C=C(C)[C@@H]1CC[C@]2(C(=O)NC(CO)(CO)CO)CC[C@]3(C)[C@H](CC[C@@H]4[C@@]5(C)CC[C@H](OC(C)=O)C(C)(C)[C@@H]5CC[C@]43C)[C@@H]12` [Compound C, Acetyl betulic acid-N-(1,1-bis(hydroxymethyl)-2-hydroxyethyl)formamide], the survival in % came out at 96% in test [1] (setting [3]); 82% in test [1] (setting [4]); 81% in test [1] (setting [5]); 67.5% in test [2] (melanoma 518A2, 1 μg/ml). The “Survival in % melanoma” value in test [2] (melanoma 518A2, 0.25 μg/ml) turned out to be 96%; in test [2] (melanoma 518A2, 0.5 μg/ml), 93%.
